Data set [1] has as its system Zika virus. The data set can be described thus: Antiviral activity against Zika virus infected in African green monkey Vero cells assessed as reduction in viral replication incubated for 24 hrs. Format: functional, organism-based.
Data set [2] has as its system dengue virus type 2. The data set can be described thus: Antiviral activity against DENV-2 RNA-dependent RNA polymerase infected in human Huh-7 cells assessed as reduction in viral replication by RT-PCR analysis. Format: functional, organism-based.
The subject of data set [3] is dengue virus type 2. The data set can be described thus: Antiviral activity against DENV-2 RNA-dependent RNA polymerase infected in African green monkey Vero cells assessed as reduction in viral replication incubated for 2 days by qRT-PCR analysis. Particulars: 48 h. It is filed as functional, organism-based. Background: In qPCR the cycle at which signal appears reflects the starting amount.

Data set [4] has as its system dengue virus type 4. Description: Antiviral activity against DENV-4 RNA-dependent RNA polymerase infected in African green monkey Vero cells assessed as reduction in viral replication incubated for 2 days by qRT-PCR analysis. It is filed as functional, organism-based. Particulars: 48 h.
In a further data set the test system is dengue virus type 1. The data set can be described thus: Antiviral activity against DENV-1 RNA-dependent RNA polymerase infected in African green monkey Vero cells assessed as reduction in viral replication incubated for 2 days by qRT-PCR analysis. Particulars: 48 h. It is filed as functional, organism-based.
A further data set concerns dengue virus type 3. The data set can be described thus: Antiviral activity against DENV-3 RNA-dependent RNA polymerase infected in African green monkey Vero cells assessed as reduction in viral replication incubated for 2 days by qRT-PCR analysis. Format: functional, organism-based. Particulars: 48 h.
A further data set concerns Vero. The data set can be described thus: Inhibition of DENV-2 RNA-dependent RNA polymerase in African green monkey Vero cells measured for 24 to 72 hrs relative to control. Format: cell-based. Particulars: dengue virus type 2, time 24-72 hrs, dose or concentration not given here.
The target of data set [5] is T1, NS5 (Zika virus, UniProt A0A143MHK7). Description: Inhibition of Zika virus RNA-dependent RNA polymerase activity.
The target of data set [6] is T2, Nonstructural protein 5 (Dengue virus, UniProt V5TFZ2). Description: Inhibition of full length His-tagged DENV-2 NS5 incubated for 1 hr. The arrangement: species or system dengue virus type 2.
Data set [7] in a line: Inhibition of DENV RNA-dependent RNA polymerase in hamster BHK-21 cells. Format: cell-based, Dengue virus.
Data set [8] in a line: Cytotoxicity against hamster BHK-21 cells. It is filed as toxicity, cell-based, Mesocricetus auratus.
Data set [9] deals with Zika virus. The data set can be described thus: Antiviral activity against Zika virus SMGC-1 infected in human Huh-7 cells assessed as reduction in viral titer. Particulars: SMGC-1, Huh-7. Format: functional, organism-based.
The target of data set [10] is Nonstructural protein 5 (Dengue virus) (UniProt V5TFZ2). Description: Binding affinity to DENV-3 NS5 assessed as gibbs free energy change. Particulars: dengue virus type 3.
Data set [11] addresses T1, NS5. Description: Inhibition of Zika virus wild type RNA-dependent RNA polymerase using ATP as substrate.
The subject of the next data set is Dengue virus. Description: Antiviral activity against DENV NS5/RNA-dependent RNA polymerase. It is filed as functional, organism-based.
Data set [12] can be described thus: Cytotoxicity against African green monkey Vero cells. Particulars: chlorocebus sabaeus. It is filed as toxicity, cell-based.
Data set [13] in a line: Inhibition of DENV-3 RNA-dependent RNA polymerase. Also noted: species or system dengue virus type 3.
The target of data set [14] is T2, Nonstructural protein 5. Description: Inhibition of DENV-4 NS5. Also noted: species or system dengue virus type 4.
Data set [15] is described as follows: Binding affinity to DENV-3 RNA-dependent RNA polymerase assessed as dissociation constant incubated for 40 sec by surface plasmon resonance analysis. The arrangement: species or system dengue virus type 3. For orientation: SPR reads the build-up and loss of mass on a sensor chip optically.
In data set [16] the test system is dengue virus type 4. The data set can be described thus: Binding affinity to DENV-4 RNA-dependent RNA polymerase assessed as change in enthalpy by ITC analysis. In general terms: In ITC the heat of successive injections is recorded.
The nature of data set [17]: Inhibition of DENV RNA-dependent RNA polymerase activity. Also noted: species or system Dengue virus.

T1 sequence (A0A143MHK7 whole entry): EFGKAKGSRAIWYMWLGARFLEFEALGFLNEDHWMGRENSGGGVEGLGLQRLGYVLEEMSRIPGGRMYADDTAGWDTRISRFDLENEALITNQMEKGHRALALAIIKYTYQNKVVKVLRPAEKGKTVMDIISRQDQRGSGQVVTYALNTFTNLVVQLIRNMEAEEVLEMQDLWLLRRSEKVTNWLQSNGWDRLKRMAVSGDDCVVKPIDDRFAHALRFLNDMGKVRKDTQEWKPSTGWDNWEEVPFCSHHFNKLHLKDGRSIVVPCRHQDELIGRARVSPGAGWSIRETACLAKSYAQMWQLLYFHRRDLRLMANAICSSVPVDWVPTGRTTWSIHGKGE

Usually EC50 stands for the concentration that produces a half-maximal response. Take `O=C(N[C@@H](Cc1ccc(O)cc1)C(=O)O)c1cc(-c2ccccc2)c(=O)n2c1sc1ccc(C3CCCCCC3)cc12`: the figures for the EC50 in the data set with Zika virus [1] and with dengue virus type 2 [2] were 1600 nM and 3700 nM, respectively.

For the compound `C[C@@]1(O)[C@H](O)[C@@H](CO)O[C@H]1n1cc(F)c2c(N)ncnc21`, the EC50 came out at 460 nM with dengue virus type 2 [3], 870 nM with dengue virus type 4 [4], 960 nM in the data set on dengue virus type 1 and 850 nM in the data set on dengue virus type 3.

As for `O=C(NCc1ccc(O)cc1)c1cc(-c2ccccc2)c(=O)n2c1sc1ccc(C3CCCCC3)cc12`, the EC50 was 1000 nM with Zika virus [1] and 1800 nM with dengue virus type 2 [2].

By inhibition is commonly meant the change of the read-out against control, counted positive when it falls. As for `Cc1cn([C@H]2C=C[C@@H](CO)O2)c(=O)[nH]c1=O`, the inhibition with Vero was 11%.

A word on the IC50: it is the concentration at which inhibition is half-maximal. Turning to `C[C@@]1(O)[C@H](O)[C@@H](COP(=O)(O)OP(=O)(O)OP(=O)(O)O)O[C@H]1n1cnc2c(N)ncnc21`, at NS5 [5], half-maximal inhibition (IC50) was put at 5260 nM.

As for `O=C1N/C(=N\c2nnc(-c3cccc(F)c3)s2)S/C1=C\c1cccc(F)c1`, on Nonstructural protein 5 [6], the half-inhibitory concentration (IC50) came out at 2300 nM.

As to `O=C(NCCO)c1cc(-c2ccccc2)c(=O)n2c1sc1ccc(C3CCCCC3)cc12`, the EC50 with Zika virus [1] is 1800 nM; in the data set on dengue virus type 2 [2], 1900 nM.

What is called CC50 is the concentration giving 50% cytotoxicity. In turn, `C#Cc1c(C#N)ncn1[C@@H]1S[C@H](CO)[C@@H](O)[C@H]1O` displayed an IC50 in data set [7] of 6570 nM. For the same compound, the CC50 in data set [8] is more than 50000 nM.

`CCNC(=O)Cn1cnc(NC(=O)c2cc(-c3ccc(C)cc3)nc3onc(C)c23)n1`: the EC50 in the data set on Zika virus [9] stood at 7430 nM. Besides, in data set [10], the deltaG is -10.5 kcal/mol. Moreover, the IC50 on NS5 [11] stood at 1130 nM.

Take `CCCC/C=C/C#CCCCCCCCC(=O)O`: in the data set on Dengue virus, the half-maximal inhibitory concentration (IC50) is 2700 nM. This compound also came in with a CC50 in [12] of 30000 nM.

On to `C#Cc1c(C(N)=O)ncn1[C@@H]1O[C@H](CO)[C@@H](O)[C@H]1O`, for which the 50% inhibitory concentration (IC50) in data set [7] amounted to 270 nM. The same compound gave a CC50 in data set [8] of 1240 nM.

For the compound `O=C(O)CCNC(=O)c1cc(-c2ccccc2)c(=O)n2c1sc1ccc(C3CCCCC3)cc12`, the EC50 amounted to 1000 nM in the data set on Zika virus [1] and 3500 nM in the data set on dengue virus type 2 [2].

On to `CC(C)[C@H](N)C(=O)OCC(CO)OCn1cnc2c(=O)[nH]c(N)nc21` (stereo partly drawn), for which the inhibition in the data set on Vero was 10%.

In the case of `O=C1N=C(SCC(=O)N2CCN(c3ccc(F)cc3)CC2)N=C2CCN(Cc3ccccc3)C[C@H]12`, the deltaG in data set [10] is -6.43 kcal/mol.

The term Kd denotes the free concentration of one partner at which half of the binding sites on the other are occupied at equilibrium, for simple one-to-one binding. As to `COc1ccc(CC(=O)O)cc1-c1ccsc1`, the IC50 is 205 nM in [13] and 210000 nM against Nonstructural protein 5 [14]. Further, the Kd in [15] was 67000 nM. Further, in the data set with dengue virus type 4 [16], the deltaH was -7.7 kcal/mol.

`CCC(CC)COC(=O)[C@H](C)N[P@](=O)(OC[C@H]1O[C@@](C#N)(c2ccc3c(N)ncnn23)[C@H](O)[C@@H]1O)Oc1ccccc1`: the IC50 amounted to 1360 nM at NS5 [5] and 1400 nM in [17].

`O=C(Nc1nc(-c2cccc3ccccc23)n[nH]1)C1=CNc2ccccc2N1`: the deltaG in data set [10] was -4.89 kcal/mol.
